Experimental findings from patent EP3002287B1, “Thiochromeno[2,3-c]quinolin-12-one derivatives and their use as topoisomerase inhibitors” (National Defense Medical Center, priority 2014, dated 2016) are described below.

As usually defined, the IC50 is the concentration that gives 50% inhibition.

The subject of test [1] is PC-3. Nature of the test: MTT assay for cell cytotoxicity. To be noted: Homo sapiens, 72 h, at least three independent experiments, read-out: MTT assay (IC50 ± SD) PC-3. The test is classed as cell-based, human. Here is the method:
(§1) All of synthesis compounds were evaluated cell cytotoxicity by using MTT colorimetric assay on PC-3 and DU-145 cell lines. DU-145 and PC-3 are human hormone-refractory (androgen-independent) prostatic cancer cell lines from American Type Culture Collection (HTB-81™, ATCC, Rockville, MD)^125 and Bioresource Collection and Research Center (60122, BCRC, Taiwan)^126, respectively. Two of the "classical" cell lines were cultivated in RPMI-1640 medium supplemented with 5% fetal bovine serum (v/v), 100 U/mL penicillin, and […] streptomycin. Approximately 2 x 10^3 cells were seeded into each well of a 96-well plate and incubated in 5% CO2 at 37 °C for 24 h. To evaluate the in vitro cytotoxicity, all the synthetic compounds were dissolved in DMSO, prepared immediately before the experiments and diluted into the complete medium before being added to each well of a 96-well plate. Each compound was then added to the culture medium for designated various concentrations (0.15, 0.5, 1.5, 5, 15 µM). After 72 h, an amount of 100 µL of MTT (1 mg/mL) was added to each well, and the samples were incubated at 37 °C for 4 h. After removing the MTT solution, 100 µL of DMSO was added to each well and incubated at 37 °C for another 20 mins. The absorbency at 560 nm was measured by using an ELISA reader.
(§2) Results are expressed as mean values of at least three independent experiments. The IC50 values of testing compounds were described in Table 1. Table1. Effects of 10-Chloro-12H-thiochromeno[2,3-c]quinolin -12-one derivatives on cytotoxicity by MTT assay.
(Formazan colour is commonly taken as a measure of viable cells.)

Test [2] has as its system DU-145. Nature of the test: MTT assay for cell cytotoxicity. The test is classed as cell-based, human. Conditions: Homo sapiens, 72 h, at least three independent experiments, read-out: MTT assay (IC50 ± SD) DU-145. The procedure: as §1, §2
Test [3] addresses T1, TOP I (Homo sapiens, UniProt P11387).
T1 construct: purchased TopoGEN TG2005H
T1 sequence (P11387 1-765): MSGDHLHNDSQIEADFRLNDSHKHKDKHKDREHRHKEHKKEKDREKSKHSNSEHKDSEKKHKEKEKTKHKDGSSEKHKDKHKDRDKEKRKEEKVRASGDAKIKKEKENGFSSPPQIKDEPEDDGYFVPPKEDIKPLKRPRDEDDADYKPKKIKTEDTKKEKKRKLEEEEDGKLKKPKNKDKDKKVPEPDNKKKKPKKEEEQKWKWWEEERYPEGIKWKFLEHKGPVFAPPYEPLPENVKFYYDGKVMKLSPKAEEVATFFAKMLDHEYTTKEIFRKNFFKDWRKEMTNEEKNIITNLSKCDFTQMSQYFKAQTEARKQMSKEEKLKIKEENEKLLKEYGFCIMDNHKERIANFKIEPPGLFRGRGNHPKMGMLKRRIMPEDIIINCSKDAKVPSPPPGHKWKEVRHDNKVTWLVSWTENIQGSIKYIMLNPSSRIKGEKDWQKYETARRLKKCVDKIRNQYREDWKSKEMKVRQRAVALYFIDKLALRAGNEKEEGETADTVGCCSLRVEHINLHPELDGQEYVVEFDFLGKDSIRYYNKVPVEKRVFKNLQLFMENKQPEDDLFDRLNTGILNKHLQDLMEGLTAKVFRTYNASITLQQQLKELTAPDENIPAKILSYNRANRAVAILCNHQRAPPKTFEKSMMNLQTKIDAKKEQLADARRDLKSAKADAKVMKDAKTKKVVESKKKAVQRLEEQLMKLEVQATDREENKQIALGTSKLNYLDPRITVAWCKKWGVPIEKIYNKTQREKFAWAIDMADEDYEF
The experiment in a line: Topoisomerase I activity assay (DNA relaxation catalyzed by TOP I). The test is classed as biochemical. Conditions: primary assay at 25 and/or 50 µM. The procedure: According to the cell cytotoxicity, compounds 5, 7, 8, 16, 19, N2, N7, N8, N9, N14-N19, and N25 were also selected for primary TOP I and II activities assays at 25 and/or 50 µM (Fig. 2-4).

In test [4] the target is T2, TOP II (Homo sapiens, UniProt P11388).
T2 construct: purchased TopoGEN TG-2000H-1
T2 sequence (P11388 whole entry): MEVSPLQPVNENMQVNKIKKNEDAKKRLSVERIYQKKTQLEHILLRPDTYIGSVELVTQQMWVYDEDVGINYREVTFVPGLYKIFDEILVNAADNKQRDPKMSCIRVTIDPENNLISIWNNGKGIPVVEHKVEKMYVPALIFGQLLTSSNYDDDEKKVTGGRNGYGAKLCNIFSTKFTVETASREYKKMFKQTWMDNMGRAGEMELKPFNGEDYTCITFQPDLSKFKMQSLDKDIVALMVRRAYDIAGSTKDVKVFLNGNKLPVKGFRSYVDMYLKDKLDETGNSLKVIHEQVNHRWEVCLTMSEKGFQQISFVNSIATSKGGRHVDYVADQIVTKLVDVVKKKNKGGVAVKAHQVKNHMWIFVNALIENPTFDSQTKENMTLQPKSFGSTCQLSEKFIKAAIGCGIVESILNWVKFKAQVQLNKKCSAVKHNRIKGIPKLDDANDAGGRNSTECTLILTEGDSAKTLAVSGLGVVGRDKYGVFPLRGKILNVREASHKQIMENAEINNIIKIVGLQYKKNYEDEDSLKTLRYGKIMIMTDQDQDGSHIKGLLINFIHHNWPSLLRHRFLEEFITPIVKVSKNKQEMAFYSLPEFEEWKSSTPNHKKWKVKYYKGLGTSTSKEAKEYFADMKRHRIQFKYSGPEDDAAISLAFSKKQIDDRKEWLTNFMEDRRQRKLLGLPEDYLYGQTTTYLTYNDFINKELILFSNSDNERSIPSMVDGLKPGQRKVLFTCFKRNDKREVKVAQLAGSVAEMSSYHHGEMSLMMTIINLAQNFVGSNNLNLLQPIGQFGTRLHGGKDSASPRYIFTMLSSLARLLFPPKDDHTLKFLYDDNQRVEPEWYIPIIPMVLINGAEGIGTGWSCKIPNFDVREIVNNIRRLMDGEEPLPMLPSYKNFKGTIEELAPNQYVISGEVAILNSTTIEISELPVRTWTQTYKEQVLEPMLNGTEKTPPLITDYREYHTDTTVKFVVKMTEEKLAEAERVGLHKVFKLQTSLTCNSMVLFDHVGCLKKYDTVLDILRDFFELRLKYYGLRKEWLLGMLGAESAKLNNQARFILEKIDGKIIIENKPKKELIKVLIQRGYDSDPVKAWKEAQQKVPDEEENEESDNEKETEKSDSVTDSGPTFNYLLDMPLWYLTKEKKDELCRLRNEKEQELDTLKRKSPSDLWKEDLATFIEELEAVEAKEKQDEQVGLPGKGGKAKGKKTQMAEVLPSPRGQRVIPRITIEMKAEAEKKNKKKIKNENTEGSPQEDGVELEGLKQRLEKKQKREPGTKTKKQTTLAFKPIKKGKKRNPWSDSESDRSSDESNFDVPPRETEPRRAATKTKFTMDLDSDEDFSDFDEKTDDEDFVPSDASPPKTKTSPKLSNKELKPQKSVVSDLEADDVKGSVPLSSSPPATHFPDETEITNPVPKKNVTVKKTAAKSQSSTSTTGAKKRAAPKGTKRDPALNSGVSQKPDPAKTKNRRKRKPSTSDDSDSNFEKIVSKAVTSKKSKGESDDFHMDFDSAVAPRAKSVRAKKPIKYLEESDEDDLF
Nature of the test: Topoisomerase II activity assay (TOP II-catalyzed relaxation of plasmid DNA). The test is classed as biochemical. Conditions: primary assay at 25 and/or 50 µM. The procedure: We also performed TOP 11-catalyzed relaxation of plasmid DNA assays(Fig. 5-7) to evaluate if compounds could inhibit TOP II. […] The IC50 value of compounds 7, N7, N8, N14, N15, N18, and N19 were about 10, 10, 1, 10, 5, 1, and 1 µM, respectively (detect by TopoGEN TG2005H, TG-2000H-1).

As to `O=c1c2cc(Cl)ccc2sc2c(N3CCNCC3)nc3ccccc3c12` [Compound 7, 10-Chloro-6-(piperazin-1-yl)-12H-thiochromeno[2,3-c]quinolin-12-one], the figures for the IC50 in test [1] and in test [2] were 2.84 ± 0.64 µM and 5.01 ± 1.68 µM, respectively. Also, the “inhibitory effects in TOP I activity assay compared with CPT” value (from here on “inhibitory effects … compared with CPT”) in test [3] is on record as “more potent inhibitory effects than CPT”. Also, in test [4], the “inhibitory effects on TOP II compared with the positive agent VP-16” value is reported as “more potent inhibitory effects than the positive agent VP-16”.

With `CN(C)CCNc1nc2ccccc2c2c(=O)c3cc(Cl)ccc3sc12` [Compound N7, 10-Chloro-6-((2-(dimethylamino)ethyl)amino)-12H-thiochrome no[2,3-c]quinolin-12-one], the results for the IC50 in test [1] and in test [2] were 2.25 ± 0.61 µM and 5.94 ± 3.45 µM, respectively. The “inhibitory effects … compared with CPT” value in test [3] is recorded as “more potent inhibitory effects than CPT”. Also, the “inhibitory effects on TOP II compared with the positive agent VP-16” value in test [4] was “more potent inhibitory effects than the positive agent VP-16”.

As to `CCN(CC)CCNc1nc2ccccc2c2c(=O)c3cc(Cl)ccc3sc12` [Compound N8, 10-Chloro-6-((2-(diethylamino)ethyl)amino)-12H-thiochromen o[2,3-c]quinolin-12-one], the IC50 is 1.11 ± 0.69 µM in test [1] and 1.73 ± 0.72 µM in test [2]. Also, the “inhibitory effects on TOP II compared with the positive agent VP-16” value in test [4] is listed as “more potent inhibitory effects than the positive agent VP-16”.

As to `NCCNc1nc2ccccc2c2c(=O)c3cc(Cl)ccc3sc12` [Compound N14, 6-((2-Aminoethyl)amino)-10-chloro-12H-thiochromeno[2,3-c]q uinolin-12-one], the IC50 in test [1] turned out to be 1.64 ± 0.55 µM; in test [2] it was 1.8 ± 0.4 µM. The “inhibitory effects … compared with CPT” value in test [3] is reported as “more potent inhibitory effects than CPT”. For the same molecule, the “inhibitory effects on TOP II compared with the positive agent VP-16” value in test [4] is on record as “more potent inhibitory effects than the positive agent VP-16”.

Take `O=c1c2cc(Cl)ccc2sc2c(NCCNCCO)nc3ccccc3c12` [Compound N15, 10-Chloro-6-((2-((2-hydroxyethyl)amino)ethyl)amino)-12H-thio chromen[2,3-c]quinolin-12-one]: the results for the IC50 in test [1] and in test [2] were 3.44 ± 1.81 µM and 3.81 ± 1.88 µM, respectively. The “inhibitory effects … compared with CPT” value in test [3] was “more potent inhibitory effects than CPT”. The “inhibitory effects on TOP II compared with the positive agent VP-16” value in test [4] is listed as “more potent inhibitory effects than the positive agent VP-16”.

Regarding `CN(C)CCCNc1nc2ccccc2c2c(=O)c3cc(Cl)ccc3sc12` [Compound N17, 10-Chloro-6-((3-(dimethylamino)propyl)amino)-12H-thiochrom eno[2,3-c]quinolin-12-one], the IC50 in test [1] was 2.27 ± 0.09 µM; in test [2], 2.7 ± 0.16 µM. Further, the “inhibitory effects … compared with CPT” value in test [3] is “more potent inhibitory effects than CPT”.

For the molecule `O=c1c2cc(Cl)ccc2sc2c(NCCCNCCO)nc3ccccc3c12` [Compound N19, 10-Chloro-6-((3-((2-hydroxyethyl)amino)propyl)amino)-12H-th iochromeno[2,3-c]quinolin-12-one], the IC50 in test [1] stood at 1.98 ± 0.72 µM; in test [2], 1.5 ± 1.32 µM. For the same molecule, in test [4], the “inhibitory effects on TOP II compared with the positive agent VP-16” value was “more potent inhibitory effects than the positive agent VP-16”.

`O=c1c2cc(Cl)ccc2sc2c(NCC3CCCCC3)nc3ccccc3c12` [Compound N24, 10-Chloro-6-((cyclohexylmethyl)amino)-12H-thiochromeno[2,3-c]quinolin-12-one]: the IC50 in test [1] turned out to be 14.8 ± 3.26 µM; in test [2], 13.6 ± 3.88 µM.

For `O=c1c2cc(Cl)ccc2sc2c(NCc3ccccc3)nc3ccccc3c12` [Compound N25, 6-(Benzylamino)-10-chloro-12H-thiochromeno[2,3-c]quinolin-12-tone], the results for the half-maximal inhibitory concentration (IC50) in test [1] and in test [2] were 11.2 ± 1.55 µM and 13.5 ± 0.69 µM, respectively. The “inhibitory effects … compared with CPT” value in test [3] is “more potent inhibitory effects than CPT”.

In the case of `O=c1c2cc(Cl)ccc2sc2c(NCc3ccccn3)nc3ccccc3c12` [Compound N26, 10-Chloro-6-((pyridin-2-ylmethyl)amino)-12H-thiochromeno[2,3-c]quinolin-12-one], the 50% inhibitory concentration (IC50) came out at 14.2 ± 2.22 µM in test [1] and 14.8 ± 1.99 µM in test [2].

In the case of `O=c1c2cc(Cl)ccc2sc2c(NCc3ccc4c(c3)OCO4)nc3ccccc3c12` [Compound N27, 6-((Benzo[d][1,3]dioxol-5-ylmethyl)amino)-10-chloro-12H-thio chromeno[2,3-c]quinolin-12-one], the IC50 was more than 15 µM in test [1] and 11.8 ± 5.83 µM in test [2].

As to `COc1ccccc1CNc1nc2ccccc2c2c(=O)c3cc(Cl)ccc3sc12` [Compound N28, 10-Chloro-6-((2-methoxybenzyl)amino)-12H-thiochromeno[2,3-c]quinolin-12-one], the IC50 in test [1] amounted to 6.01 ± 3.31 µM; in test [2], 9.61 ± 4.88 µM.

Take `COc1ccc(CNc2nc3ccccc3c3c(=O)c4cc(Cl)ccc4sc23)cc1OC` [Compound N29, 10-Chloro-6-((3,4-dimethoxybenzyl)amino)-12H-thiochromeno [2,3-c]quinolin-12-one]: the IC50 in test [1] came out at 6.2 ± 2.52 µM; in test [2] it was 4.86 ± 0.99 µM.

As for `O=c1c2cc(Cl)ccc2sc2c(NCCc3ccccc3)nc3ccccc3c12` [Compound N30, 10-Chloro-6-(phenethylamino)-12H-thiochromeno[2,3-c]quinol in-12-one], the IC50 in test [1] and in test [2] was more than 15 µM in each case.

For the molecule `COc1ccc(CCNc2nc3ccccc3c3c(=O)c4cc(Cl)ccc4sc23)cc1` [Compound N31, 10-Chloro-6-((4-methoxyphenethyl)amino)-12H-thiochromeno[2,3-c]quinolin-12-one], the IC50 in test [1] and in test [2] was more than 15 µM in each case.

Regarding `Nc1ccc(CCNc2nc3ccccc3c3c(=O)c4cc(Cl)ccc4sc23)cc1` [Compound N32, 6-((4-Aminophenethyl)amino)-10-chloro-12H-thiochromeno[2,3-c]quinolin-12-one], the IC50 came out at 10.1 ± 0.94 µM in test [1] and 13.6 ± 1.39 µM in test [2].

Turning to `NC(N)=Nc1nc2ccccc2c2c(=O)c3cc(Cl)ccc3sc12` [Compound N33, 2-(10-Chloro-12-oxo-12H-thiochromeno[2,3-c]quinolin-6-yl)gu anidine], the IC50 in test [1] turned out to be 6.13 ± 6.98 µM; in test [2], 8.11 ± 1.37 µM.

Turning to `O=c1c2cc(Cl)ccc2sc2c(NN3CCCCC3)nc3ccccc3c12` [Compound N34, 10-Chloro-6-(piperidin-1-ylamino)-12H-thiochromeno[2,3-c]qu inolin-12-one], the IC50 in test [1] came to 8.22 ± 1.02 µM; in test [2], 9.06 ± 1.95 µM.

Regarding `COc1cc([C@@H]2c3cc4c(cc3[C@@H](O[C@@H]3O[C@@H]5CO[C@@H](C)O[C@H]5[C@H](O)[C@H]3O)[C@H]3COC(=O)[C@H]23)OCO4)cc(OC)c1O` [Etoposide (VP-16), Etoposide, reference compound], the half-inhibitory concentration (IC50) in test [1] was 4.33 ± 0.86 µM; in test [2], 0.4 ± 0.01 µM.

On to `O=C1c2c(O)ccc(O)c2C(=O)c2c(NCCNCCO)ccc(NCCNCCO)c21` [Mitoxantrone, reference compound], for which the figures for the IC50 in test [1] and in test [2] were 0.39 ± 0.02 µM and 0.1 ± 0.01 µM, respectively.
